One experiment has as its target T1, erbB2 (Homo sapiens, UniProt P04626).
T1 construct: a cell line that overexpresses full length wild type erbB2 protein; expressed in transfected cells; host or cells: MCF7 (breast carcinoma) derived 'Clone 24' cells
In words: Clone 24 phospho-erbB2 cell assay, Test (c). It is filed as cell-based. The following applies: MCF7 derived cell line (Clone 24) overexpressing erbB2, 4 hours; read-out: IC50 Test (c): Inhibition of erbB2 tyrosine kinase protein phosphorylation. On the procedure: This immunofluorescence end point assay measures the ability of a test compound to inhibit the phosphorylation of erbB2 in a MCF7 (breast carcinoma) derived cell line which was generated by transfecting MCF7 cells with the full length erbB2 gene using standard methods to give a cell line that overexpresses full length wild type erbB2 protein (hereinafter ‘Clone 24’ cells).
Clone 24 cells were cultured in Growth Medium (phenol red free Dulbecco's modified Eagle's medium (DMEM) containing 10% foetal bovine serum, 2 mM glutamine and 1.2 mg/ml G418) in a 7.5% CO2 air incubator at 37° C. […] Cell density was measured using a haemocytometer and viability was calculated using Trypan Blue solution before being further diluted in Growth Medium and seeded at a density of 1×10^4 cells per well (in 100 μl) into clear bottomed 96 well plates (Packard, No. 6005182). […]
Immunostaining was performed at room temperature. […] Plates were analysed within six hours of completing the immunostaining.
The Fluorescence signal is each well was measured using an Acumen Explorer Instrument (Acumen Bioscience Ltd.), a plate reader that can be used to rapidly quantitate features of images generated by laser-scanning. […]

In a further experiment the target is T2, erbB2 tyrosine kinase (Homo sapiens, UniProt P04626).
T2 construct: Recombinant intracellular fragments of EGFR, erbB2 and erbB4; made in house; host or cells: baculovirus/Sf21 insect cells (cleared lysate used)
The experiment can be described thus: Protein tyrosine kinase phosphorylation assay, Test (a), erbB2. It is filed as biochemical. The following applies: recombinant intracellular fragment, ATP at Km; read-out: IC50 Test (a): Inhibition of erbB2 tyrosine kinase protein phosphorylation. On the procedure: (§1) This test measures the ability of a test compound to inhibit the phosphorylation of a tyrosine containing polypeptide substrate by EGFR, erbB2 and erbB4 tyrosine kinase enzyme.
(§2) Recombinant intracellular fragments of EGFR, erbB2 and erbB4 (accession numbers X00588, X03363 and L07868 respectively) were cloned and expressed in the baculovirus/Sf21 system. […]
(§3) Constitutive kinase activity of these recombinant proteins was determined by their ability to phosphorylate a synthetic peptide (made up of a random co-polymer of Glutamic Acid, Alanine and Tyrosine in the ratio of 6:3:1). […]
(§4) The immobilised phospho-peptide product of the reaction was detected by immunological methods. […] After further washing, HRP activity in each well of the plate was measured colorimetrically using 22′-Azino-di-[3-ethylbenzthiazoline sulfonate (6)]diammonium salt crystals (ABTS™ from Roche) as a substrate.
(§5) Quantification of colour development and thus enzyme activity was achieved by the measurement of absorbance at 405 nm on a Molecular Devices ThermoMax microplate reader. Kinase inhibition for a given compound was expressed as an IC50 value. […] The range of phosphorylation was calculated from the positive (vehicle plus ATP) and negative (vehicle minus ATP) control values.

The next experiment concerns the target T3, EGFR tyrosine kinase (Homo sapiens, UniProt P00533).
T3 construct: Recombinant intracellular fragments of EGFR, erbB2 and erbB4; made in house; host or cells: baculovirus/Sf21 insect cells (cleared lysate used)
In words: Protein tyrosine kinase phosphorylation assay, Test (a), EGFR. The experiment is classed as biochemical. The following applies: recombinant intracellular fragment, ATP at Km; read-out: IC50 Test (a): Inhibition of EGFR tyrosine kinase protein phosphorylation. The procedure:
as §1, §2, §3, §4, §5

T3 sequence (P00533 669-1210 limits assumed): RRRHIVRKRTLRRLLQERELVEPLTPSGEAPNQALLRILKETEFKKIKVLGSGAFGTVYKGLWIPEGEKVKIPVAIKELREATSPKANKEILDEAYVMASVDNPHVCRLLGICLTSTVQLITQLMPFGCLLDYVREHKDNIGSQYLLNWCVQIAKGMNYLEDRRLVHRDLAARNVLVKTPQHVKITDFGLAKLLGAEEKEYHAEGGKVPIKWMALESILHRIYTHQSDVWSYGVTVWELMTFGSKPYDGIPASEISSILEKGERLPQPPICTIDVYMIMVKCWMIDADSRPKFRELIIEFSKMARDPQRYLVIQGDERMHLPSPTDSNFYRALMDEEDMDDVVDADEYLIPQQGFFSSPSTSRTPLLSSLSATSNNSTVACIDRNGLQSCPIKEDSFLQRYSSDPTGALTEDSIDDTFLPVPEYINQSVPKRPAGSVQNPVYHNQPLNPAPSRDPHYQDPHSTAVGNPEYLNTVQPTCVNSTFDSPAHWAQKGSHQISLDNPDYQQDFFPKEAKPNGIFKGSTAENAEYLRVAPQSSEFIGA
T1 sequence (P04626 23-1255): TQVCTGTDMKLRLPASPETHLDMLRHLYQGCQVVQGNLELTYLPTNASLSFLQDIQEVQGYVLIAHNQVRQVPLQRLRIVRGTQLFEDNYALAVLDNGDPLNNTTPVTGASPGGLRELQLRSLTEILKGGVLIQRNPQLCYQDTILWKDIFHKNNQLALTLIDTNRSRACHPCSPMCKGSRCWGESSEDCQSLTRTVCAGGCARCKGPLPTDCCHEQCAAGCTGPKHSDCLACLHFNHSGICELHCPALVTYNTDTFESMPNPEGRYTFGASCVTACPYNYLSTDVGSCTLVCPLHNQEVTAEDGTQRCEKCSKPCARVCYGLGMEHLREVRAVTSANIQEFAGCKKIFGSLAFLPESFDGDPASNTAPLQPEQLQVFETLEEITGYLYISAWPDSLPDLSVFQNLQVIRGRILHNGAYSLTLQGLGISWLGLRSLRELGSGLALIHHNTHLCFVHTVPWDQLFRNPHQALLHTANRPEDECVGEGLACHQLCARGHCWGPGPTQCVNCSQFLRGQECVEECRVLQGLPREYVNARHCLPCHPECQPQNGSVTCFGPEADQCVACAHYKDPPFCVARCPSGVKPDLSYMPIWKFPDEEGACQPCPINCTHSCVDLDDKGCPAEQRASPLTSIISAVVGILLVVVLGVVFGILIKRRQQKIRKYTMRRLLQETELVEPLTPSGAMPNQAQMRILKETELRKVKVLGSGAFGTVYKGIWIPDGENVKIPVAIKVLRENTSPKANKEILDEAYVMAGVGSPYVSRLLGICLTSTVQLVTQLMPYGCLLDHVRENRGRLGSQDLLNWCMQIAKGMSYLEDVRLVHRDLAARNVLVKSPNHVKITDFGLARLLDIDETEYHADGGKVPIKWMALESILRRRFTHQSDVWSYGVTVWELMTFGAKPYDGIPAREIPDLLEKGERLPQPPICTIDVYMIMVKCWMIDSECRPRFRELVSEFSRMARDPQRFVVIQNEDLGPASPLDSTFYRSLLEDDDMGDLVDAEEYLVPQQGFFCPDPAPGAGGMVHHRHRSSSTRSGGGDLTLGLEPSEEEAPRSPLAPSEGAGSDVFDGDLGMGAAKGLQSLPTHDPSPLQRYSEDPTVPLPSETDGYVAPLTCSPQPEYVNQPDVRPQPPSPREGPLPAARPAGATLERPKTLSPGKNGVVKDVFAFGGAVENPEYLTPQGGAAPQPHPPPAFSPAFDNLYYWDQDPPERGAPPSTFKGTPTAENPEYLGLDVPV
T2 sequence (P04626 676-1255 limits assumed): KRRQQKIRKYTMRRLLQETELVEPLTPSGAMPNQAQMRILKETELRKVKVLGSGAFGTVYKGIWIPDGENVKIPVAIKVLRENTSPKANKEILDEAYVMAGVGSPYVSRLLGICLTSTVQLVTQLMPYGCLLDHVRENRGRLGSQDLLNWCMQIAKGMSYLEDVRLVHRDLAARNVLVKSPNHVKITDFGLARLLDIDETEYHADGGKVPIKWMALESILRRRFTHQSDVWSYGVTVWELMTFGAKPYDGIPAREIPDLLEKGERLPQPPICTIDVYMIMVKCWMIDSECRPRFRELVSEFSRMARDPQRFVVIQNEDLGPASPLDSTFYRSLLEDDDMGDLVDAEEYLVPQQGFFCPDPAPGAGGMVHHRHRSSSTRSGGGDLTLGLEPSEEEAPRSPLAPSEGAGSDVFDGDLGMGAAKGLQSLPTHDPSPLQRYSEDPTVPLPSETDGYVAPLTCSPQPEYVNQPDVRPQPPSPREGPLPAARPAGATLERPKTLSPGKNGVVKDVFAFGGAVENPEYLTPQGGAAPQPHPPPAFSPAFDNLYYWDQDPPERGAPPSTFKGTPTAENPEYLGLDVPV

As a reminder, the IC50 is the midpoint of a concentration-inhibition curve. As for `O=C(CO)N1CCC[C@@H]1COc1cccc2ncnc(Nc3ccc4c(cnn4Cc4ccccn4)c3)c12` [Example 1, 2-Oxo-2-((2R)-2-{[(4-{[1-(pyridin-2-ylmethyl)-1H-indazol-5-yl]amino}quinazolin-5-yl)oxy]methyl}pyrrolidin-1-yl)ethanol], the figures for the IC50 at erbB2, at erbB2 tyrosine kinase and at EGFR tyrosine kinase were 0.38 µM, 0.006 µM and 0.31 µM, respectively.

For the compound `O=C(CO)N1CCCC[C@@H]1COc1cccc2ncnc(Nc3ccc4c(cnn4Cc4ccccn4)c3)c12` [Example 4, 2-Oxo-2-((2R)-2-{[(4-{[1-(pyridin-2-ylmethyl)-1H-indazol-5-yl]amino}quinazolin-5-yl)oxy]methyl}piperidin-1-yl)ethanol], the IC50 at erbB2 is 0.044 µM; at erbB2 tyrosine kinase, 0.005 µM; on EGFR tyrosine kinase, 0.061 µM.

(Values after US20090137615A1, “INDAZOLYLAMINO QUINAZOLINE DERIVATIVES AS ANTITUMOUR AGENTS” (priority 2005, published 2009).)
